Assay results taken from patent US6686382B2, “Sulfonamides and derivatives thereof that modulate the activity of endothelin” (Encysive Pharmaceuticals Inc., priority 1999, dated 2004).

Biological target: T1, human ETA receptors (Homo sapiens, UniProt P25101)
T1 construct: endogenous in cells; host or cells: TE 671 cells (ATCC HTB 139), membrane preparation
T1 sequence (P25101 21-427): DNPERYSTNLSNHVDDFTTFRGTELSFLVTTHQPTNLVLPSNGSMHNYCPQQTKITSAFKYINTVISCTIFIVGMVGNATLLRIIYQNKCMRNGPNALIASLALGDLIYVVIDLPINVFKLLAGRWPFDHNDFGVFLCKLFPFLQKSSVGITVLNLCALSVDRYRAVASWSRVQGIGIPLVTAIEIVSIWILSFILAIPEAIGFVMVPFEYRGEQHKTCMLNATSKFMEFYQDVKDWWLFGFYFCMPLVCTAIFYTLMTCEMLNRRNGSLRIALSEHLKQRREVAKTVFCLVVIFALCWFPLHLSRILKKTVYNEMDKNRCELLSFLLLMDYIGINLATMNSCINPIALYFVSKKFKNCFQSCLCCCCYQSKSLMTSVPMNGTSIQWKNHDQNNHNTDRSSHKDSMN
Assay: Endothelin binding inhibition, Binding Test #1: inhibition of binding to ETA receptors (TE 671 cell membranes)
Settings: relative to N-(4-chloro-3-methyl-5-isoxazolyl)-2-{[3,4-(methylenedioxy)-6-methylphenyl)acetyl]-thiophene-3-sulfonamide (= 1.0)
Description: Compounds that are potential endothelin antagonists are identified by testing their ability to compete with ^125I-labeled ET-1 for binding to human ETA receptors or ETB receptors present on isolated cell membranes. The effectiveness of the test compound as an antagonist or agonist of the biological tissue response of endothelin can also be assessed by measuring the effect on endothelin induced contraction of isolated rat thoracic aortic rings. The ability of the compounds to act as antagonists or agonists for ETB receptors can be assess by testing the ability of the compounds are to inhibit endothelin-1 induced prostacyclin release from cultured bovine aortic endothelial cells.
A. Endothelin Binding Inhibition—Binding Test #1: Inhibition of Binding to ETA Receptors
TE 671 cells (ATCC Accession No. HTB 139) express ETA receptors. These cells were grown to confluence in T-175 flasks. Cells from multiple flasks were collected by scraping, pooled and centrifugedfor 10 min at 190×g. The cells were resuspended in phosphate buffered saline (PBS) containing 10 mM EDTA using a Tenbroeck homogenizer. The suspension was centrifuged at 4° C. at 57,800×g for 15 min, the pellet was resuspended in 5 ml of buffer A (5 mM HEPES buffer, pH 7.4 containing aprotinin (100 KIU/ml)) and then frozen and thawed once. 5 ml of Buffer B (5 mM HEPES Buffer, pH 7.4 containing 10 mM MnCl2 and 0.001% deoxyribonuclease Type 1) was added, the suspension mixed by inversion and then incubated at 37° C. for 30 minutes. The mixture was centrifuged at 57,800×g as described above, the pellet washed twice with buffer A and then resuspended in buffer C (30 mM HEPES buffer, pH 7.4 containing aprotinin (100 KIU/ml) to give a final protein concentration of 2 mg/ml and stored at −70° C. until use.
The membrane suspension was diluted with binding buffer (30 mM HEPES buffer, pH 7.4 containing 150 mM NaCl, 5 mM MgCl2, 0.5% Bacitracin) to a concentration of 8 μg/50 μl. ^125I-endothelin-1 (3,000 cpm, […]) was added to 50 μL of either: (A) endothelin-1 (for non specific binding) to give a final concentration 80 nM); (B) binding buffer (for total binding); or (C) a test compound (final concentration 1 nM to 100 μM). The membrane suspension (50 μL), containing up to 8 μg of membrane protein, was added to each of (A), (B), or (C). Mixtures were shaken, and incubated at 4° C. for 16-18 hours, and then centrifuged at 4° C. for 25 min at 2,500×g. Alternatively, the incubation was conducted at 24° C. […] This, must be kept in mind when comparing IC50 concentrations among compounds provided herein.
The supernatant, containing unbound radioactivity, was decanted and the pellet counted on a Genesys multiwell gamma counter. The degree of inhibition of binding (D) was calculated according to the following equation: [formula]
Each test was generally performed in triplicate.

| SMILES | ETA ACTIVITY (ETA antagonist activity relative to reference compound) |
| --- | --- |
| Cc1cc2c(cc1CC(=O)c1sccc1S(=O)(=O)Nc1onc(C)c1Cl)OCO2 [N-(4-chloro-3-methyl-5-isoxazolyl)-2-{[3,4-(methylenedioxy)-6-methylphenyl)acetyl]-thiophene-3-sulfonamide, reference compound] | 1.0 |
| CC(=O)c1cc(C)cc(C)c1NC(=O)c1sccc1S(=O)(=O)Nc1onc(C)c1C [Compound 7, N-(2-acetyl-4,6-dimethylphenyl)-3-{[(3,4 dimethyl-5-isoxazolyl)amino]sulfonyl}-2-thiophenecarboxamide] | 18.1 |
| Cc1cc(C)c(NC(=O)c2sccc2S(=O)(=O)Nc2onc(C)c2Cl)c(Cl)c1 [Compound 34, N-(2-chloro-4,6-dimethylphenyl)-3-{[(4-chloro-3-methyl-5-isoxazolyl)amino]sulfonyl}2-thiophenecarboxamide] | 20.7 |
| Cc1cc(C)c(NC(=O)c2sccc2S(=O)(=O)Nc2onc(C)c2Cl)c(S(C)(=O)=O)c1 [Compound 42, 3-{[(4-chloro-3-methyl-5-isoxazolyl)amino]sulfonyl)-N-[2,4-dimethyl-6-(methylsulfonyl)phenyl]-2-thiophenecarboxamide] | 64.1 |
